Where two headings read alike, the source gives them in different places.
Compound: O=C1Cc2cccc(c2)Nc2nccc(n2)-c2ccnc(c2)NCCCN1
- ring closure, yield of all isomers (from NCCCNc1cc(-c2ccnc(Nc3cccc(CC(=O)O)c3)n2)ccn1, amide bond, HATU, DMF, 1.52 mM, 0.0 °C, 3.0 h): 74.2%

Compound: c1cc2cc(c1)OCCCNc1ncccc1-c1ccnc(n1)N2
- ring closure, yield of all isomers (from Oc1cccc(Nc2nccc(-c3cccnc3NCCCBr)n2)c1, ether bond, K2CO3, acetone, 19.3 mM, 56.0 °C, 6.0 h, 3 steps): 34.6%

Compound: c1cc2cc(c1)OCCCNc1cc(ccn1)-c1ccnc(n1)N2
- ring closure, yield of all isomers (from Oc1cccc(Nc2nccc(-c3ccnc(NCCCBr)c3)n2)c1, ether bond, K2CO3, acetone, 6.5 mM, 56.0 °C, 3.0 h, 2 steps): 26.5%

Reference: patent US7151096
